Data: US11253497B2, “Use of derivatives of polyunsaturated fatty acids as medicaments” (Lipopharma Therapeutics, S.L., priority 2009, dated 2022)

Tests used:
[1] = Lamellar-to-hexagonal (HII) transition temperature in DEPE model membranes by Differential Scanning Calorimetry; assay type: physicochemical; conditions: DEPE membranes, DEPE:D-PUFA 10:1 (mol:mol)
How it was run: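 Lamellar-to-HII transition temperature of DEPE membranes measured by differential scanning calorimetry, with DEPE:fatty acid at 10:1 mol:mol. Control membranes contained no fatty acid.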

[2] = test system: breast cancer cells MDA-MB-231; assay: Growth of breast cancer cells MDA-MB-231; assay type: cell-based; conditions: 72 hours of incubation
How it was run: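 Cell counts taken with compound, mean of three independent experiments. Applies to MDA-MB-231.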

[3] = test system: brain cancer cell (glioma) U118; assay: Brain cancer (glioma) U118 cell growth; assay type: cell-based; conditions: 72 hours of incubation
How it was run: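 Cell counts taken with compound, mean of three independent experiments. Applies to U118.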

lung cancer cells A549 = assay: Growth of lung cancer cells A549 (IC50); assay type: cell-based, human; conditions: 72 hours of incubation
How it was run: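 Cell counts taken with compound, mean of three independent experiments. Applies to A549 (RPMI 1640, 10% FBS, 37 °C, 5% CO2).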

Jurkat cells = assay: Human leukaemia (Jurkat cells); assay type: cell-based; conditions: 72 hours
Description: Overall, it may be seen that the series of compounds A and B are the best, so the effectiveness of these series against the development of leukaemia and liver cancer (Tables 9 and 10) was tested.

[4] = test system: Spontaneously Hypertensive Rats (SHR); assay: Blood pressure of SHR rats (cuff-tail method); assay type: in vivo, rat; conditions: 200 mg/kg day p.o., 30 days, before treatment 214 mmHg
How it was run: (§1)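 SHR rats dosed orally at 200 mg/kg day for 30 days against water vehicle. At study end, blood pressure taken non-invasively by tail cuff and apoA-I assessed as gene expression by RT-PCR.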

[5] = test system: apolipoprotein AI (apoA-I); assay: Levels of apoA-I in SHR rats (RT-PCR); assay type: in vivo, rat; conditions: 200 mg/kg day p.o., 30 days, before treatment 100%
How it was run: as §1

P19 cells = assay: NMDA-induced neuronal death in P19 cells; assay type: cell-based; conditions: NMDA alone 100% death, control without NMDA 0%; negative values = proliferation
α-synuclein = assay: Expression of α-synuclein in neuronal cultures (cells P19); assay type: cell-based; conditions: untreated cells 100%
COX-2 = assay: Expression of COX-2 in LPS-stimulated monocytes in culture; assay type: cell-based, human; conditions: positive control with LPS 100%
How it was run: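 Cultured monocytes stimulated with LPS; COX-2 protein level expressed as % inhibition relative to the LPS-only positive control (100%).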

TNF-α = assay: Production of TNF-α in serum of LPS-injected C57BL6/J mice; assay type: in vivo; conditions: LPS 20 μg i.p. (100%), 200 mg/kg p.o.
How it was run: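 C57BL6/J mice given intraperitoneal LPS (20 μg) to induce inflammation, then dosed orally with derivatives at 200 mg/kg. Serum TNF-α measured.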

[6] = Serum cholesterol, triglycerides and glucose in SHR rats (colorimetric); assay type: in vivo, rat; conditions: 200 mg/kg daily p.o., 28 days, untreated rats 100%
How it was run: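 SHR rats dosed p.o. at 200 mg/kg daily for 28 days; serum cholesterol, triglycerides and glucose measured colorimetrically. Values given as percent of untreated control rats, set at 100%.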

B6 healthy mice = assay: Radial maze in control animals (B6 healthy mice); assay type: in vivo; conditions: 20 mg/kg daily po, 3 months
Description: To test the efficacy of the compounds of the present invention to induce neuroregeneration or inhibit neurodegeneration, an animal model of Alzheimer's disease was used. In this model mice develop neurodegeneration because they express a series of mutant proteins that lead to brain damage (Alzh mice). B6 mice were used as healthy animal controls. Both groups of animals were treated for a period of 3 months with vehicle (water) or with various D-PUFA (20 mg/kg, daily po) since they were an age of 3 months. To determine whether cognitive improvement occurred after treatment, animal behaviour was monitored in the radial maze. The animals are kept on restricted diet to have appetite. In a symmetrical 8-arm radial maze, visual marks were placed to facilitate the orientation of the animal and food (15 mg tablet) was put in four of the arms. The time each animal took to complete the exercise, and the number of errors, were measured using a camera attached to a computer system. In this sense, Alzheimer animals have values about 50% higher than healthy animals, both by the time it takes to perform the exercise and by the number of errors made (FIG. 4B). […] In this regard, the effectiveness of the compound 183B1, 205A1, 205B1, 226A1, 226 V1 was also tested, showing improvements in animals with Alzheimer's disease (times of 98, 92, 93, 86 and 89 seconds, respectively). On the other hand, it is also interesting that these same compounds (183B1, 205A1, 205B1, 226A1, 226B1 and 226V1) also produced reductions in the times taken to complete the experiment in control animals (B6 healthy mice) of 8s, 11s, 12s, 18s, 16s and 14s, respectively. Therefore, it may be concluded that these compounds have significant activity against neurodegeneration and in neuroregeneration.

CC/C=C\C/C=C\C/C=C\C/C=C\C/C=C\C/C=C\CC(O)C(=O)[O-].[Na+] (stereo not drawn) [226B1]
Temperature of lamellar-to-hexagonal transition [1]: 45.1 °C | IC50 [2]: 195 µM | IC50 [3]: 196 µM | IC50 (lung cancer cells A549): 198 µM | IC50 (Jurkat cells): 175 µM | Blood pressure [4]: 186 mm Hg | Levels of apoA-I [5]: 333% | Neuronal death (P19 cells) after treatment with NMDA (P19 cells): −222% | Expression of α-synuclein (α-synuclein): 31% | COX-2 protein levels (expression), percentages of inhibition compared to positive control (COX-2): 37% | Production of TNF-α in serum (TNF-α): 83% | Cholesterol in serum (top number) [6]: 59% | Glucose in serum (bottom number) [6]: 81% | Triglycerides in serum (central number) [6]: 62% | Reduction in the time taken to complete the experiment (B6 healthy mice): 16 s
